Source: patent US20240117431A1, “STEM-CELL BASED BIOMARKER DISCOVERY” (THE REGENTS OF THE UNIVERSITY OF CALIFORNIA, priority 2020, published 2024)

Key:
[1] = tested on: co-culture of mCherry HEK cells and GFP-TgUPRT variant HEK cells; assay: Co-culture specificity, dot blot of biotinylated total RNA (CuAAC or IEDDA); format: cell-based; conditions: 5 hours
Protocol: Co-culture of HEK cells containing GFP or mCherry expression plasmids: HEK293 (5×105) cells seeded in 6-well plate. Thirty-six hour post seeding, HEK cells were transfected with 1 μg of single plasmid containing EGFP, mCherry, EGFP-TgUPRT-WT, or EGFP-TgUPRT-Mut. Twenty-four hour post transfection, transiently transfected HEK cells were trypsinized and seeded into a 5 cm plate. Equal amounts of cells (approximately 2×106 in total) where 1×10^6 cells containing GFP or GFP-TgUPRT plasmids and 1×10^6 cells containing mCherry construct) were co-cultured. Three co-culture conditions are Condition (A): mCherry and EGFP, Condition (B): mCherry and EGFP-WT-TgUPRT, and Condition (C): mCherry and EGFP-3×MT-TgUPRT (pKN-CMV-EGFP-TgUPRT-Mut16 or -Mut17). Sixteen hours post seeding, the co-cultures were treated with 5EU and 5VU for 5 hours at 200 μM and 500 μM final concentration, respectively. Cell imaging was performed to assess the overall distribution of green and red cells in each co-culture. Once imaging was done, cells were harvested and subjected to RNA isolation. Total RNA isolated from the co-culture was subjected to biotinylation by two click methods: (1) CuAAC to assess 5EU incorporation in RNA and (2) IEDDA to assess 5VU incorporation in RNA. Subsequently, biotinylated RNA was subjected to dot blot analysis. […]

[2] = tested on: GFP-3×MT-TgUPRT HEK293T cells co-cultured with mCherry cells; assay: Co-culture RT-qPCR enrichment of GFP transcript over mCherry; format: cell-based
Protocol: FIGS. 10A, 10B, 100, 10D, 10E show characterizing the stringency of the 2 (5VU)-mutant TgUPRT pair. […] Cells were transfected with TgUPRT variants and incubated with 2 at 1 mM final concentration for 24h. 2 incorporation was imaged using two-step labeling (1) IEDDA using tetrazene-biotin then followed by Alexa488-streptavidin. […] Streptavidin-HRP (Strep-HRP) was used for assessment of biotin level resulting from clicked RNA, and methylene blue (MeBI) staining served as loading control. […] Cells were treated the same as in panel 10B and the RNA appended with biotin and enriched before RT RT-qPCR.
Co-culture of HEK cells containing GFP or mCherry expression plasmids: HEK293 (5×105) cells seeded in 6-well plate. Thirty-six hour post seeding, HEK cells were transfected with 1 μg of single plasmid containing EGFP, mCherry, EGFP-TgUPRT-WT, or EGFP-TgUPRT-Mut. Twenty-four hour post transfection, transiently transfected HEK cells were trypsinized and seeded into a 5 cm plate. Equal amounts of cells (approximately 2×106 in total) where 1×10^6 cells containing GFP or GFP-TgUPRT plasmids and 1×10^6 cells containing mCherry construct) were co-cultured. Three co-culture conditions are Condition (A): mCherry and EGFP, Condition (B): mCherry and EGFP-WT-TgUPRT, and Condition (C): mCherry and EGFP-3×MT-TgUPRT (pKN-CMV-EGFP-TgUPRT-Mut16 or -Mut17). […]

Compound | incorporation into RNA mediated by GFP-3×MT-TgUPRT (co-culture dot blot) ([1]; 500 μM 5VU with 200 μM 5EU) | enrichment of GFP transcript, triple mutant cells compared to no UPRT cells ([2]; {}) [fold] | incorporation into RNA in the absence of TgUPRT (co-culture dot blot) ([1]; 200 μM 5EU with 500 μM 5VU) | enrichment of GFP transcript in -UPRT cells ([2]; co-culture, RT-qPCR)
C=Cc1c[nH]c(=O)[nH]c1=O [compound 2, 5-Vinylpyrimidine-2,4(1H,3H)-dione] | substantially | ~100 | – | –
C#Cc1c[nH]c(=O)[nH]c1=O [compound 1, 5-ethynylpyrimidine-2,4(1H,3H)-dione] | – | – | detectable signal | Background enrichment
